Experiment: xn = mol fraction of the nth substance listed

CCOC(C)=O + CCCCCCC
296 K, 101.3 kPa
Conditions	viscosity [mPa·s]
x1 = 0.0713	0.391
x1 = 0.1748	0.385
x1 = 0.2448	0.382
x1 = 0.3468	0.382
x1 = 0.4832	0.383
x1 = 0.4946	0.381
x1 = 0.5009	0.382
x1 = 0.5867	0.387
x1 = 0.6508	0.392
x1 = 0.7653	0.403
x1 = 0.8485	0.413
x1 = 0.8885	0.42

CCCCCCCCn1cc[n+](C)c1.[Cl-] + CO
298.15 K, 101 kPa
Conditions	viscosity [mPa·s]
x2 = 0.0565	10350
x2 = 0.1686	3456
x2 = 0.3525	534

CCOC(C)=O + CCCCCO
viscosity [mPa·s], 101.33 kPa
Conditions	x1 = 0.1	x1 = 0.2	x1 = 0.3	x1 = 0.4001	x1 = 0.5001	x1 = 0.6036	x1 = 0.7001	x1 = 0.8001	x1 = 0.9
298.15 K	2.349	1.693	1.282	1.011	0.829	–	0.6	0.521	0.472
303.15 K	2.079	1.53	1.161	0.924	0.766	0.644	0.561	0.486	0.446
308.15 K	1.843	1.367	1.053	0.848	0.681	0.599	0.525	0.459	0.392

CCOc1ccccc1 + CN1CCCC1=O
viscosity [mPa·s], 101.33 kPa
Conditions	x1 = 0.041	x1 = 0.122	x1 = 0.201	x1 = 0.273	x1 = 0.37	x1 = 0.504	x1 = 0.628	x1 = 0.709	x1 = 0.822
298 K	1.667	1.648	1.622	1.594	1.551	1.481	1.408	1.36	1.285
303 K	1.541	1.518	1.49	1.461	1.418	1.353	1.286	1.242	1.175
308 K	1.432	1.406	1.377	1.348	1.307	1.244	1.183	1.141	1.08

FC(F)(F)C(F)(F)Cl + FC(F)Cl
Conditions	viscosity [mPa·s]
298.15 K, 101 kPa, x2 = 0.63	0.16

CCOC(C)=O + CN1CCCC1=O
viscosity [mPa·s], 101 kPa
Conditions	x2 = 0.1022	x2 = 0.2038	x2 = 0.305	x2 = 0.4057	x2 = 0.506	x2 = 0.6057	x2 = 0.705	x2 = 0.8038	x2 = 0.9021
303.15 K	0.556	0.725	0.879	1.023	1.154	1.271	1.369	1.449	1.511
308.15 K	0.523	0.669	0.804	0.928	1.042	1.147	1.235	1.307	1.365
313.15 K	0.492	0.628	0.753	0.869	0.975	1.07	1.153	1.221	1.274
318.15 K	0.462	0.582	0.695	0.798	0.893	0.976	1.051	1.114	1.165

OCC(O)CO + CN(C)C=O
viscosity [mPa·s], 101 kPa
Conditions	x1 = 0.105	x1 = 0.209	x1 = 0.312	x1 = 0.414	x1 = 0.514	x1 = 0.613	x1 = 0.712	x1 = 0.809	x1 = 0.905
303.15 K	1.5	2.41	4.22	7.36	14.2	19.9	64.6	127.5	258.7
318.15 K	1.24	1.84	2.91	4.77	8.35	–	27.3	50.5	91.1

COc1ccc(C=O)cc1 + CCCCOCCO
viscosity [mPa·s], 101 kPa
Conditions	x1 = 0.1088	x1 = 0.2154	x1 = 0.3201	x1 = 0.4227	x1 = 0.5234	x1 = 0.6223	x1 = 0.7193	x1 = 0.8146	x1 = 0.9081
303.15 K	2.197	2.089	2.055	2.09	2.191	2.354	2.575	2.852	3.18
308.15 K	2.107	2.006	1.963	1.973	2.035	2.145	2.3	2.499	2.738
313.15 K	1.984	1.912	1.881	1.888	1.932	2.01	2.121	2.262	2.432
318.15 K	1.836	1.786	1.766	1.773	1.806	1.865	1.947	2.051	2.175

From the CheMixHub viscosity set
